Assay results published in paper PMC11758220, “Identification of a Privileged Scaffold for Inhibition of Sterol Transport Proteins through the Synthesis and Ring Distortion of Diverse, Pseudo-Natural Products” (ACS Central Science, 2025).

Columns and labels:
STARD3 = biological target: T1, STARD3 (Homo sapiens, UniProt Q14849); assay: Differential scanning fluorimetry (DSF), STARD3; type: binding; conditions: single dose, Dose = 10 µM
T1 construct: STARD3(216-444); made in house; host or cells: E. coli BL21(DE3)
T1 sequence (Q14849 216-444): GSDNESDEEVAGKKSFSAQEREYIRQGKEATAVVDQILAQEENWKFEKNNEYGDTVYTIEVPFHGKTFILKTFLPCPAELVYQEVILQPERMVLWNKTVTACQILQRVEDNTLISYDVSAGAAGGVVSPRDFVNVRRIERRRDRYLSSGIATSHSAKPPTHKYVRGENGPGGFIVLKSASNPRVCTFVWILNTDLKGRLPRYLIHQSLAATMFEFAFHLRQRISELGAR
Excerpt: (§1) Protein expression constructs
(§2) Human ASTER domains of Aster-A(359-547), -B(364-552) and -C(318-504) were subcloned into a pGEX-6p-2rbs vector, thus introducing the cloning artifact ‘GPLGS’.3 The pGEX-6P-1-GST-OSBP(377- […]
(§3) a gift from James H. Hurley (University of California).4 The pHIS_2His6_Thrombin_STARD4(2-205;C75S) plasmid was a gift from Young Jun Im (Chonnam National University).5 STARD5A was a gift from Nicola Burgess-Brown (Addgene plasmid #42392; http://n2t.net/addgene:42392; […]
(§4) Protein expression and purification […]
(§5) vectors including an N-terminal PreScission-cleavable glutathione S-transferase (GST)-tag were expressed in Escherichia coli (E. coli) OverExpress C41 in Terrific Broth (TB) medium for 16 h at 18 °C after the induction with 0.1 mM isopropyl β-D-1-thiogalactopyranoside (IPTG). Cells were harvested at 3500 × g for 15 minutes and lysed by sonication in buffer containing 50 mM HEPES pH 7.5, 300 mM NaCl, 10 %v/v glycerol, 5 mM dithiothreitol (DTT), 0.1 %v/v Triton X-100 and protease inhibitor mix HP plus (Serva). The lysate was purified by affinity chromatography on a GSTrap FF column (Cytiva) using an ÄKTA Start (Cytiva) in buffer containing 50 mM HEPES pH 7.5, 300 mM NaCl, 10 %v/v glycerol, 5 mM DTT and 0.01 %v/v Triton X-100. The GST-tag was cleaved overnight on the column at 4 °C. The Aster sterol binding domains were further purified by size-exclusion chromatography (SEC) on a HiLoad 16/600 Superdex 75 pg (Cytiva) in buffer containing 20 mM HEPES pH 7.5, 300 mM NaCl, 10 %v/v […]
(§6) STARD5(6-213) harboring an N-terminal His6-Tag were expressed in E. coli BL21(DE3) in Luria-Bertani Broth (LB) medium for approximately 16 h at 18 °C after induction with 0.15 mM IPTG. Cells were harvested at 3500 × g for 15 minutes and lysed by sonication in buffer containing 50 mM HEPES pH 7.5, 150 mM NaCl, 5 %v/v glycerol, 5 mM DTT, 0.1 %v/v Triton X -100 and ethylenediaminetetraacetic acid (EDTA)-free protease inhibitor cocktail (Sigma-Aldrich). The cleared lysate was purified by affinity chromatography on a Ni-NTA Superflow Cartridge (Qiagen) using an ÄKTA Start (Cytiva) in buffer containing 50 mM HEPES pH 7.5, 150 mM NaCl, 5 %v/v glycerol, 5 mM DTT. START domains were eluted by using elution buffer containing 50 mM HEPES pH 7.5, 150 mM NaCl, 5 %v/v glycerol, 5 mM DTT and 500 mM imidazole. Proteins were further purified by SEC on a HiLoad 16/600 Superdex 75 pg (Cytiva) in buffer containing 20 mM HEPES pH 7.5, 150 mM NaCl, 5 %v/v glycerol and 2 mM DTT.
(§7) The ORP domain of human OSBP(377-807) in the pGEX-6p-1 vector with an N-terminal PreScission-cleavable GST-tag was expressed in E. coli OverExpress C41 in LB medium for 16 h at 18 °C after induction with 0.1 mM IPTG. Cells were harvested at 3500 × g for 15 minutes and lysed by sonication in buffer containing 20 mM HEPES pH 7.5, 300 mM NaCl, 10 %v/v glycerol, 5 mM DTT, 0.1 %v/v Triton X-100 and EDTA-free protease inhibitor cocktail (Sigma-Aldrich). The cleared lysate was purified by affinity chromatography on a GSTrap HF column (Cytiva) using an ÄKTA Start (Cytiva) in buffer containing 20 mM HEPES pH 7.5, 300 mM NaCl, 10 %v/v glycerol, 5 mM DTT. OSBP(377 -807) was eluted by using elution buffer containing 20 mM HEPES pH 7.5, 300 mM NaCl, 10 %v/v glycerol, 5 mM DTT and 10 mM reduced glutathione. Proteins were further purified by SEC on a HiLoad 16/600 Superdex 75 pg (Cytiva) using an ÄKTA Explorer (Cytiva) in buffer containing 20 mM HEPES pH 7.5, 150 mM NaCl, 10 %v/v glycerol and 2 mM DTT.
(§8) The ORP domains of human ORP1(534-950) in pET24b(+) and ORP2(49-480) in the pET24b(+) vector including an N-terminal His6-Tag were expressed in E. coli BL21(DE3) in TB medium for approximately 16 h at 18 °C after induction with 0.1 mM IPTG. Cells were collected at 3500 × g for 15 minutes and lysed by sonification in buffer containing 10 mM Tris-HCl pH 8, 300 mM NaCl, 5 % glycerol, 2 mM DTT, 0.1 % Triton X-100 and EDTA-free protease inhibitor cocktail (Sigma-Aldrich). The cleared […]

ORP2 = biological target: T2, ORP2 (Homo sapiens, UniProt Q9H1P3); assay: Fluorescence polarisation (FP) competition with NBD-cholesterol, ORP2; type: binding; conditions: single dose, Dose = 10 µM
T2 construct: ORP2(49-480); host or cells: E. coli BL21(DE3)
T2 sequence (Q9H1P3 49-480): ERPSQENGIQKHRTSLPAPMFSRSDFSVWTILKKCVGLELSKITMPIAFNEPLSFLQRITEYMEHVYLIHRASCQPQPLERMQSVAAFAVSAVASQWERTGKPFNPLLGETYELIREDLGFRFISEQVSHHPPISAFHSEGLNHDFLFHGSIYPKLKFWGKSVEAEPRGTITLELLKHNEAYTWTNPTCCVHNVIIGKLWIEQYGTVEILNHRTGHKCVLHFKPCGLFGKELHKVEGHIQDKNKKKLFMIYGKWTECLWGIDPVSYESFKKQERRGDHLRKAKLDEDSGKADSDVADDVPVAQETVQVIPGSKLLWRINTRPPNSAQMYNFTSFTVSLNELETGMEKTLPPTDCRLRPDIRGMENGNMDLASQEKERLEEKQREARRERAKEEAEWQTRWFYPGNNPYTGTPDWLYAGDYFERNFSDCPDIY
Excerpt: as §1, §2, §3, §4, §5, §6, §7, §8

For `C[C@]12CC[C@@H](O)C[C@H]1CCC[C@]21NC(=O)c2ccccc2N1` [Compound 5a], the “STARD3 (DSF) ΔTm” value (STARD3) was 0.0244 °C, the ΔTm at 10 µM (STARD3) was -0.16 °C and the “ORP2 (FP) inhibition” value (ORP2) was 11%. The inhibition at 10 µM (ORP2) was 6%.
For `C[C@]12CC[C@@H](O)C[C@H]1CCC[C@]21NC(=O)c2ccc(F)cc2N1` [Compound 5b], the “STARD3 (DSF) ΔTm” value (STARD3) was 0.0138 °C, the ΔTm at 10 µM (STARD3) was -0.121 °C and the “ORP2 (FP) inhibition” value (ORP2) was 2%. For the same compound, the inhibition at 10 µM (ORP2) was 7%.
With `COc1ccc2c(c1)C(=O)N[C@]1(CCC[C@@H]3C[C@H](O)CC[C@@]31C)N2` [Compound 5c] the “STARD3 (DSF) ΔTm” value (STARD3) was 0.0624 °C, the ΔTm at 10 µM (STARD3) was 0.114 °C and the “ORP2 (FP) inhibition” value (ORP2) was 12%. It also gave an inhibition at 10 µM (ORP2) of 24%.
Work on `C[C@]12CC[C@@H](O)C[C@H]1CCc1nc3ccccc3nc12` [Compound 7a] yielded a ΔTm at 10 µM (STARD3) of -0.1 °C and an inhibition at 10 µM (ORP2) of 55%.
For `Cc1cc2nc3c(nc2cc1C)[C@@]1(C)CC[C@@H](O)C[C@H]1CC3` [Compound 7b], the ΔTm at 10 µM (STARD3) was 0.0153 °C and the inhibition at 10 µM (ORP2) was 12%.
With `C[C@]12CC[C@@H](O)C[C@H]1CCc1nc3cc(F)c(F)cc3nc12` [Compound 7c] the “STARD3 (DSF) ΔTm” value (STARD3) was -0.124 °C and the “ORP2 (FP) inhibition” value (ORP2) was 9%.
In the case of `C[C@]12CC[C@@H](O)C[C@H]1CCc1nc3cc(Cl)c(Cl)cc3nc12` [Compound 7d], the “STARD3 (DSF) ΔTm” value (STARD3) is reported as -0.1 °C and the “ORP2 (FP) inhibition” value (ORP2) is reported as 12%.
`C[C@]12CC[C@@H](O)C[C@H]1CCc1nc3cc(Br)c(Br)cc3nc12` [Compound 7e] was tested, and the “STARD3 (DSF) ΔTm” value (STARD3) was 0.138 °C and the “ORP2 (FP) inhibition” value (ORP2) was 27%.
`C[C@]12CC[C@@H](O)C[C@H]1CCc1sc(N)nc12` [Compound 8a] was tested, and the ΔTm at 10 µM (STARD3) was 0.0829 °C and the inhibition at 10 µM (ORP2) was 11%.
In the case of `Cc1nc2c(s1)CC[C@@H]1C[C@H](O)CC[C@]21C` [Compound 8b], the “STARD3 (DSF) ΔTm” value (STARD3) is reported as 0.0139 °C and the “ORP2 (FP) inhibition” value (ORP2) is reported as 13%.
With `C[C@]12CC[C@@H](O)C[C@H]1CCc1sc(-c3cccnc3)nc12` [Compound 8c] the “STARD3 (DSF) ΔTm” value (STARD3) was 0.345 °C and the “ORP2 (FP) inhibition” value (ORP2) was 17%.
`COc1ccc(-c2nc3c(s2)CC[C@@H]2C[C@H](O)CC[C@]32C)cc1` [Compound 8d] gave a ΔTm at 10 µM (STARD3) of 0.5 °C and an inhibition at 10 µM (ORP2) of 38%.
For `C[C@]12CC[C@@H](O)C[C@H]1CCc1sc(-c3ccc(F)cc3)nc12` [Compound 8e], the “STARD3 (DSF) ΔTm” value (STARD3) was 0.0572 °C and the “ORP2 (FP) inhibition” value (ORP2) was 25%.
`C[C@]12CC[C@@H](O)C[C@H]1CCc1[nH]c(-c3ccccc3)nc12` [Compound 9] was tested, and the ΔTm at 10 µM (STARD3) was -0.0297 °C and the inhibition at 10 µM (ORP2) was 3.5%.
`C[C@]12CC[C@@H](O)C[C@H]1CCc1c2[nH]c2ccccc12` [Compound 10a] was tested, and the “STARD3 (DSF) ΔTm” value (STARD3) was -0.188 °C and the “ORP2 (FP) inhibition” value (ORP2) was 34%.
